The first experiment concerns the target T1, KRAS G12C 1-169, his-tagged protein, GDP-loaded (Homo sapiens, UniProt P01116, G12C).
T1 construct: KRAS G12C 1-169, his-tagged protein, GDP-loaded
In words: KRAS G12C covalent binding (% modification) by mass spectrometry, ten or three minute incubation. The settings on record: covalent binding to KRAS G12C after a ten minute incubation period. How it is done:
Test compounds were prepared as 10 mM stock solutions in DMSO (Fisher cat #BP-231-100). KRAS G12C 1-169, his-tagged protein, GDP-loaded was diluted to […] in buffer (20 mM Hepes, 150 mM NaCl, 1 mM MgCl2). Compounds were tested for activity as follows:
Compounds were diluted to 50× final test concentration in DMSO in 96-well storage plates. Compound stock solutions were vortexed before use and observed carefully for any sign of precipitation. Dilutions were as follow: • For 100 μM final compound concentration, compounds were diluted to 5000 μM (5 μl 10 mM compound stock+5 μl DMSO and mixed well by pipetting. • For 30 μM final compound concentration, compounds were diluted to 1500 μM (3 μl 10 mM compound stock+17 μl DMSO) and mixed well by pipetting. • For 10 μM final compound concentration, compounds were diluted to 500 μM (2 μl 10 mM compound stock+38 μl DMSO) and mixed well by pipetting. 49 μl of the stock protein solution was added to each well of a 96-well PCR plate (Fisher cat #1423027). 1 μl of the diluted 50× compounds were added to appropriate wells in the PCR plate using 12-channel pipettor. Reactions were mixed carefully and thoroughly by pipetting up/down with a 200 μl multi-channel pipettor. […] 5 μl of 2% formic acid (Fisher cat #A117) in DI H2O was then added to each well followed by mixing with a pipette. The plate was then resealed with aluminum seal and stored on dry ice until analyzed as described below.
The above described assays were analyzed by mass spectrometry according to one of the following two procedures:
The MS instrument is set to positive polarity, 2 GHz resolution, and low mass (1700) mode and allowed to equilibrate for 30 minutes. The instrument is then calibrated, switched to acquisition mode and the appropriate method loaded.
After another 30 minute equilibration time, a blank batch (i.e., buffer) is run to ensure equipment is operating properly. The samples are thawed at 37° C. for 10 minutes, briefly centrifuged, and transfer to the bench top. Wells A1 and H12 are spiked with 1 μL 500 μM internal standard peptide, and the plates centrifuged at 2000×g for 5 minutes. The method is then run and masses of each individual well recorded.
The masses (for which integration data is desired) for each well are pasted into the platemap and exported from the analysis. Masses for the internal standards are exported as well. The data at 50 ppm is extracted for the +19 charge state, and identity of well A1 is assigned using the internal standard spike and integrated. Peak data is exported as a TOF list and the above steps are repeated individually, for the +20, 21, 22, 23, 24, and 25 charge states.
The masses and peak intensities of KRAS G12C protein species were measured using a Dionex RSLCnano system (Thermo Scientific) connected to a Q Exactive Plus mass spectrometer (Thermo Scientific).
[…] of sample was each loaded onto a Aeris™ 3.6 μm WIDEPORE C4 200 Å, LC Column 50×2.1 mm column maintained at 40° C. at a flow rate of 600 μl min^−1 with […] (0.1% formic acid in acetonitrile). The liquid chromatography conditions were 20% solvent B for 1 min, 20% to 60% solvent B for 1.5 min, 60% to 90% solvent for 0.5 min, 90% solvent B for 0.2 min, 90% to 20% solvent B for 0.2 min, and then equilibrated for 1.6 min before the following sample injection. The flow rate was maintained at 600 μl min^−1 throughout the sample analysis.
The mass spectrometer was operated in profile mode at a resolution of 17500, 5 microscans, using 50 msec max injection time and an AGC target of 1e6, and a full mass range from 800-1850 m/z was recorded. The HCD trapping gas was optimized for maximum sensitivity for intact proteins. The ionization method was electrospray ionization, which used a spray voltage of 4 kV, sheath gas flow set to 50 au, auxiliary gas flow set to 10 au and sweep gas flow set to 1 au. […]
Turning to `C=CC(=O)N1C[C@@H](C)N(c2nc(N3CC(N(C)C)C3)nc3c(F)c(-c4c(O)cccc4F)c(Cl)cc23)C[C@H]1C` [Compound 80, 1-((2R,5R)-4-(6-chloro-2-(3-(dimethylamino)azetidin-1-yl)-8-fluoro-7-(2-fluoro-6-hydroxyphenyl)quinazolin-4-yl)-2,5-dimethylpiperazin-1-yl)prop-2-en-1-one], the Binding % result was “+ (+ indicates binding activity greater than 0% and up to 50%)”.

The same experiment, now with this note: covalent binding to KRAS G12C, % modification after a three minute incubation period.
Take `C=CC(=O)N1C[C@H](C)N(c2nc(N3CC(N(C)C)C3)nc3c(F)c(-c4c(C)ccc5[nH]nc(C(N)=O)c45)c(Cl)cc23)C[C@H]1C` [Compound 296, 4-(4-((2S,5R)-4-acryloyl-2,5-dimethylpiperazin-1-yl)-6-chloro-2-(3-(dimethylamino)azetidin-1-yl)-8-fluoroquinazolin-7-yl)-5-methyl-1H-indazole-3-carboxamide]: the Binding % result is listed as “++ (++ indicates binding activity from 50 to 90%)”.
On the same count and under the same terms, as for `C=CC(=O)N1C[C@H](C)N(c2nc(OCC(C)(C)C#N)nc3c(F)c(-c4c(O)cccc4F)c(Cl)cc23)C[C@H]1C` (atropisomer, axis not shown) [Compound 282, 3-((4-((2S,5R)-4-acryloyl-2,5-dimethylpiperazin-1-yl)-6-chloro-8-fluoro-7-((S)-2-fluoro-6-hydroxyphenyl)quinazolin-2-yl)oxy)-2,2-dimethylpropanenitrile], the entry is “++ (++ indicates binding activity from 50 to 90%)”; as for `C=CC(=O)N1C[C@H](C)N(c2nc(N3CC(N(C)CCCCCN=[N+]=[N-])C3)nc3c(F)c(-c4c(O)cccc4F)c(Cl)cc23)C[C@H]1C` [Compound 301, 1-((2R,5S)-4-(2-(3-((5-azidopentyl)(methyl)amino)azetidin-1-yl)-6-chloro-8-fluoro-7-(2-fluoro-6-hydroxyphenyl)quinazolin-4-yl)-2,5-dimethylpiperazin-1-yl)prop-2-en-1-one], “++ (++ indicates binding activity from 50 to 90%)”.
Still for that read-out and setting: as for `C=CC(=O)N1C[C@@H](C)N(c2nc(N3CC(N(C)C)C3)nc3c(F)c(-c4c(O)cccc4F)c(Cl)cc23)C[C@H]1C` [Compound 86, 1-((2R,5R)-4-(6-chloro-2-(3-(dimethylamino)azetidin-1-yl)-8-fluoro-7-(2-fluoro-6-hydroxyphenyl)quinazolin-4-yl)-2,5-dimethylpiperazin-1-yl)prop-2-en-1-one], the entry is “+ (+ indicates binding activity greater than 0% and up to 50%)”; as for `C=CC(=O)N1C[C@@H](C)N(c2nc(N3CC(N(C)C)C3)nc3c(F)c(-c4c(O)cccc4F)c(Cl)cc23)C[C@@H]1C` [Compound 87, 1-((2S,5R)-4-(6-chloro-2-(3-(dimethylamino)azetidin-1-yl)-8-fluoro-7-(2-fluoro-6-hydroxyphenyl)quinazolin-4-yl)-2,5-dimethylpiperazin-1-yl)prop-2-en-1-one], “+ (+ indicates binding activity greater than 0% and up to 50%)”.
The same measure, in the same setting: with `C=CC(=O)N1C[C@H](C)N(c2nc(N3CC(N(C)C)C3)nc3c(F)c(-c4c(O)cccc4F)c(Cl)cc23)C[C@@H]1C` [Compound 94, 1-((2S,5S)-4-(6-chloro-2-(3-(dimethylamino)azetidin-1-yl)-8-fluoro-7-(2-fluoro-6-hydroxyphenyl)quinazolin-4-yl)-2,5-dimethylpiperazin-1-yl)prop-2-en-1-one] the entry was “+ (+ indicates binding activity greater than 0% and up to 50%)”; with `C=CC(=O)N1C[C@H](C)N(c2nc(OCCc3nccc(C)n3)nc3c(F)c(-c4c(O)cccc4F)c(Cl)cc23)C[C@H]1C` (atropisomer, axis not shown) [Compound 257, 1-((2R,5S)-4-(6-chloro-8-fluoro-7-((S)-2-fluoro-6-hydroxyphenyl)-2-(2-(4-methylpyrimidin-2-yl)ethoxy)quinazolin-4-yl)-2,5-dimethylpiperazin-1-yl)prop-2-en-1-one], “+++ (+++ indicates binding activity greater than 90%)”; with `C=CC(=O)N1C[C@H](C)N(c2nc(OCCc3cncn3C)nc3c(F)c(-c4c(O)cccc4F)c(Cl)cc23)C[C@H]1C` (atropisomer, axis not shown) [Compound 284, 1-((2R,5S)-4-(6-chloro-8-fluoro-7-((S)-2-fluoro-6-hydroxyphenyl)-2-(2-(1-methyl-1H-imidazol-5-yl)ethoxy)quinazolin-4-yl)-2,5-dimethylpiperazin-1-yl)prop-2-en-1-one], “+++ (+++ indicates binding activity greater than 90%)”.
For `C=CC(=O)N1C[C@H](C)N(c2nc(OCCn3ccnc3CC)nc3c(F)c(-c4c(O)cccc4F)c(Cl)cc23)C[C@H]1C` (atropisomer, axis not shown) [Compound 277, 1-((2R,5S)-4-(6-chloro-2-(2-(2-ethyl-1H-imidazol-1-yl)ethoxy)-8-fluoro-7-((S)-2-fluoro-6-hydroxyphenyl)quinazolin-4-yl)-2,5-dimethylpiperazin-1-yl)prop-2-en-1-one], the Binding % entry is reported as “+++ (+++ indicates binding activity greater than 90%)”.
For the compound `C=CC(=O)N1C[C@H](C)N(c2nc(OCCCN3CC(F)(F)C3)nc3c(F)c(-c4cc(O)cc5ccccc45)c(Cl)cc23)C[C@H]1C` [Compound 247, 1-((2R,5S)-4-(6-chloro-2-(3-(3,3-difluoroazetidin-1-yl)propoxy)-8-fluoro-7-(3-hydroxynaphthalen-1-yl)quinazolin-4-yl)-2,5-dimethylpiperazin-1-yl)prop-2-en-1-one], the Binding % entry is “+ (+ indicates binding activity greater than 0% and up to 50%)”.
For `C=CC(=O)N1CCN(c2nc(N3CC(N(C)C)C3)nc3c(F)c(-c4c(O)cccc4F)c(C(F)(F)F)cc23)C[C@H]1C` (atropisomer, axis not shown) [Compound 271, 1-((R)-4-(2-(3-(dimethylamino)azetidin-1-yl)-8-fluoro-7-((S)-2-fluoro-6-hydroxyphenyl)-6-(trifluoromethyl)quinazolin-4-yl)-2-methylpiperazin-1-yl)prop-2-en-1-one], the Binding % result was “+ (+ indicates binding activity greater than 0% and up to 50%)”.
Consider `C=CC(=O)N1C[C@H](C)N(c2nc(N3CC(N(C)C)C3)nc3c(F)c(-c4c[nH]c5c(F)cccc45)c(Cl)cc23)C[C@H]1C` [Compound 294, 1-((2R,5S)-4-(6-chloro-2-(3-(dimethylamino)azetidin-1-yl)-8-fluoro-7-(7-fluoro-1H-indol-3-yl)quinazolin-4-yl)-2,5-dimethylpiperazin-1-yl)prop-2-en-1-one], for which the Binding % entry was “+ (+ indicates binding activity greater than 0% and up to 50%)”.
As for `C=CC(=O)N1C[C@H](C)N(c2nc(OCCn3ccnc3C#N)nc3c(F)c(-c4c(C)ccc5[nH]ncc45)c(Cl)cc23)C[C@H]1C` [Compound 279, 1-(2-((4-((2S,5R)-4-acryloyl-2,5-dimethylpiperazin-1-yl)-6-chloro-8-fluoro-7-(5-methyl-1H-indazol-4-yl)quinazolin-2-yl)oxy)ethyl)-1H-imidazole-2-carbonitrile], the Binding % result is on record as “++ (++ indicates binding activity from 50 to 90%)”.
The same measure, in the same setting: with `C=CC(=O)N1C[C@H](C)N(c2nc(OCCn3ccnc3CC)nc3c(F)c(-c4c(C)ccc5[nH]ncc45)c(Cl)cc23)C[C@H]1C` [Compound 283, 1-((2R,5S)-4-(6-chloro-2-(2-(2-ethyl-1H-imidazol-1-yl)ethoxy)-8-fluoro-7-(5-methyl-1H-indazol-4-yl)quinazolin-4-yl)-2,5-dimethylpiperazin-1-yl)prop-2-en-1-one] the entry was “+++ (+++ indicates binding activity greater than 90%)”.

These data come from US11021470B2, “2-substituted quinazoline compounds comprising a substituted heterocyclic group and methods of use thereof” (Araxes Pharma LLC, priority 2015, dated 2021).
